Ten molecules from US4861769A, “Cephem compounds” (Fujisawa Pharmaceutical Co., Ltd., priority 1985, dated 1989) can be followed below.

Each structure is given as a SMILES string. Converted amounts (≈) assume the structure as drawn.

Common to all, as to format: cell-based
One experiment deals with P. vulgaris IAM 1025. The experiment can be described thus: In vitro antibacterial activity, two-fold agar-plate dilution method (MIC), P. vulgaris IAM 1025. Conditions: Proteus vulgaris, IAM1025, heart infusion agar, 37° C., 20 hours, read-out: MIC (minimal inhibitory concentration). The method, then: (§1) Now in order to show the utility of the object compounds [I], the test data on MIC (minimal inhibitory concentration) of representative compounds [I] of this invention are shown in the following.
(§2) In vitro antibacterial activity was determined by the two-fold agar-plate dilution method as described below.
(§3) One loopful of an overnight culture of each test strain in Trypticase-soy broth (10^6 viable cells per ml) was streaked on heart infusion agar (HI-agar) containing graded concentrations of representative test compound, and the minimal inhibitory concentration (MIC) was expressed in terms of μg/ml after incubation at 37° C. for 20 hours.

For another experiment, the system named is P. mirabilis 1. The experiment can be described thus: In vitro antibacterial activity, two-fold agar-plate dilution method (MIC), P. mirabilis 1. The conditions noted are these: Proteus mirabilis, heart infusion agar, 37° C., 20 hours, read-out: MIC (minimal inhibitory concentration). The method, then: as §1, §2, §3
Another experiment relates to E. coli 31. The experiment can be described thus: In vitro antibacterial activity, two-fold agar-plate dilution method (MIC), E. coli 31. Conditions: Escherichia coli, heart infusion agar, 37° C., 20 hours, read-out: MIC (minimal inhibitory concentration). As to the method: as §1, §2, §3
Another experiment concerns S. aureus 209P JC-1. In words: In vitro antibacterial activity, two-fold agar-plate dilution method (MIC), S. aureus 209P JC-1. Conditions: Staphylococcus aureus, heart infusion agar, 37° C., 20 hours, read-out: MIC (minimal inhibitory concentration). The method, then:
as §1, §2, §3

In the next experiment the test system is E. coli 58. The experiment can be described thus: In vitro antibacterial activity, two-fold agar-plate dilution method (MIC), E. coli 58. The conditions noted are these: Escherichia coli, heart infusion agar, 37° C., 20 hours, read-out: MIC (minimal inhibitory concentration). The method, then: as §1, §2, §3

As to `Nc1nc(/C(=N/OC2CC2Cl)C(=O)N[C@@H]2C(=O)N3C(C(=O)O)=C(CSc4nncs4)CS[C@H]23)cs1` (single isomer, unassigned) [(7)], the MIC is at most 0.025 µg/mL in the experiment on P. vulgaris IAM 1025; 0.2 µg/mL (≈ 0.348 µM) with P. mirabilis 1; at most 0.025 µg/mL with E. coli 31; 0.39 µg/mL (≈ 0.679 µM) in the experiment with S. aureus 209P JC-1; 0.05 µg/mL (≈ 0.0871 µM) in the experiment with E. coli 58.
For `Nc1nc(/C(=N/OC2CC2)C(=O)N[C@@H]2C(=O)N3C(C(=O)[O-])=C(C[n+]4ccccc4)CS[C@H]23)cs1` [(1)], the MIC is 0.05 µg/mL (≈ 0.0999 µM) in the experiment on P. vulgaris IAM 1025; 0.1 µg/mL (≈ 0.2 µM) with P. mirabilis 1; at most 0.025 µg/mL in the experiment with E. coli 31; 0.39 µg/mL (≈ 0.779 µM) in the experiment on S. aureus 209P JC-1; 0.05 µg/mL (≈ 0.0999 µM) in the experiment on E. coli 58.
Take `Nc1nc(/C(=N/OC2CC2)C(=O)N[C@@H]2C(=O)N3C(C(=O)O)=C(CSc4nncs4)CS[C@H]23)cs1` [(2)]: the MIC was at most 0.025 µg/mL in the experiment on P. vulgaris IAM 1025; 0.05 µg/mL (≈ 0.0927 µM) in the experiment with P. mirabilis 1; at most 0.025 µg/mL in the experiment with E. coli 31; 0.39 µg/mL (≈ 0.723 µM) with S. aureus 209P JC-1; at most 0.025 µg/mL in the experiment with E. coli 58.
With `Cn1c(SCC2=C(C(=O)O)N3C(=O)[C@@H](NC(=O)/C(=N\OC4CC4)c4csc(N)n4)[C@H]3SC2)n[nH]c(=O)c1=O` [(3)], the MIC in the experiment with P. vulgaris IAM 1025 is 0.05 µg/mL (≈ 0.0861 µM); in the experiment on P. mirabilis 1, 0.05 µg/mL (≈ 0.0861 µM); in the experiment with E. coli 31, at most 0.025 µg/mL; in the experiment with S. aureus 209P JC-1, 0.39 µg/mL (≈ 0.672 µM); with E. coli 58, at most 0.025 µg/mL.
For the molecule `Nc1nc(/C(=N/OC2CC2)C(=O)N[C@@H]2C(=O)N3C(C(=O)O)=C(CSc4ccc5nnnn5n4)CS[C@H]23)cs1` [(4)], the MIC with P. vulgaris IAM 1025 was 0.05 µg/mL (≈ 0.087 µM); in the experiment on P. mirabilis 1, 0.1 µg/mL (≈ 0.174 µM); in the experiment with E. coli 31 it was at most 0.025 µg/mL; in the experiment on S. aureus 209P JC-1, 0.39 µg/mL (≈ 0.679 µM); in the experiment on E. coli 58, 0.05 µg/mL (≈ 0.087 µM).
Turning to `Nc1nc(/C(=N/OC2CC2)C(=O)N[C@@H]2C(=O)N3C(C(=O)O)=C(CSc4ncns4)CS[C@H]23)cs1` [(5)], the MIC with P. vulgaris IAM 1025 was at most 0.025 µg/mL; in the experiment on P. mirabilis 1, 0.05 µg/mL (≈ 0.0927 µM); with E. coli 31 it was at most 0.025 µg/mL; in the experiment on S. aureus 209P JC-1, 0.39 µg/mL (≈ 0.723 µM); with E. coli 58 it was at most 0.025 µg/mL.
On to `Nc1nc(/C(=N/OC2CC2(Cl)Cl)C(=O)N[C@@H]2C(=O)N3C(C(=O)[O-])=C(C[n+]4ccccc4)CS[C@H]23)cs1` (some centres unmarked) [(6)], for which the MIC with P. vulgaris IAM 1025 stood at 0.05 µg/mL (≈ 0.0878 µM); in the experiment on P. mirabilis 1, 1.56 µg/mL (≈ 2.74 µM); in the experiment with E. coli 31, 0.05 µg/mL (≈ 0.0878 µM); in the experiment with S. aureus 209P JC-1, 0.39 µg/mL (≈ 0.685 µM); in the experiment on E. coli 58 it was 0.2 µg/mL (≈ 0.351 µM).
On to `Nc1nc(/C(=N/OC2CC2)C(=O)N[C@@H]2C(=O)N3C(C(=O)O)=C(CSc4cnns4)CS[C@H]23)cs1` [(8)], for which the MIC is 0.1 µg/mL (≈ 0.185 µM) in the experiment on P. vulgaris IAM 1025; 0.1 µg/mL (≈ 0.185 µM) with P. mirabilis 1; at most 0.025 µg/mL in the experiment with E. coli 31; 0.78 µg/mL (≈ 1.45 µM) in the experiment with S. aureus 209P JC-1; 0.05 µg/mL (≈ 0.0927 µM) in the experiment on E. coli 58.
Take `CC(=O)OCC1=C(C(=O)O)N2C(=O)[C@@H](NC(=O)/C(=N\OC3CC3)c3csc(N)n3)[C@H]2SC1` [(9)]: the MIC is at most 0.025 µg/mL with P. vulgaris IAM 1025; 0.05 µg/mL (≈ 0.104 µM) in the experiment with P. mirabilis 1; 0.05 µg/mL (≈ 0.104 µM) in the experiment on E. coli 31; 1.56 µg/mL (≈ 3.24 µM) with S. aureus 209P JC-1; 0.05 µg/mL (≈ 0.104 µM) with E. coli 58.
As to `Nc1nc(/C(=N/OC2CC2)C(=O)N[C@@H]2C(=O)N3C(C(=O)[O-])=C(C[n+]4ccccc4)CS[C@H]23)ns1` [(10)], the MIC was 0.1 µg/mL (≈ 0.199 µM) in the experiment with P. vulgaris IAM 1025; 0.2 µg/mL (≈ 0.399 µM) in the experiment with P. mirabilis 1; under 0.025 µg/mL with E. coli 31; 0.78 µg/mL (≈ 1.56 µM) in the experiment with S. aureus 209P JC-1; 0.2 µg/mL (≈ 0.399 µM) in the experiment with E. coli 58.
